Assays:
[1] = target: T1, HA-HaloTag-Smad5 (Rhodococcus rhodochrous, UniProt P0A3G2, C176G/H272F/K175M/Y273L); experiment: Zebrafish embryo HA-HaloTag-Smad5 degradation (immunoblot); format: in vivo, Danio rerio; conditions: 10 μM, 24 hours
T1 construct: The HaloTag protein was obtained from pHT2 vector (Promega); Danio rerio Smad5 (fusion partner); expressed in transfected cells; host or cells: zebrafish (TLF line) embryos injected with in vitro transcribed cRNA at the one-cell stage
Method: The wild-type fish line TLF was used for this study. The HA-HaloTag-Smad5 in pCS2+ plasmid was in vitro transcribed with the SP6 transcription kit (Ambion). The mRNA was injected at 100 ng/μL at the one cell stage and embryos were raised to the 256-cell stage, when they were moved to glass depression slides (10-per-well) and put in 1 ml E2 media with or without HyT13 (10 μM). Embryos were cultured at 28.6° C. for 24 hours and then dechorionated and de-yolked as described^43. Approximately 60 embryos per condition were collected for immunoblot analysis, as described above.
We also explored the possibility of employing the hydrophobic tagging system in the zebrafish Danio rerio. We injected HA-HaloTag-Smad5 cRNA into zebrafish embryos and then treated the embryos with either vehicle or HyT13.

[2] = tested on: NIH-3T3 cells infected with HA-HaloTag(D106A)-H-RasG12V; experiment: Focus formation assay, HA-HaloTag(D106A)-H-RasG12V cells; format: cell-based, mouse; conditions: 1 μM, 1% FBS, day 6
Method: One hundred thousand NIH-3T3 cells infected with HA-HaloTag-H-RasG12V and HA-HaloTag(D106A)-H-RasG12V were plated onto 10-cm cell culture plates in 10% FBS with DMEM. The next day, the media was replaced with 1% FBS media and the cells were administered either vehicle or 1 μM HyT13. The media and the drug were replaced every two days. On day 6, the foci were photographed and counted as the number of distinct foci per 1-cm^2 area.
We next explored the functional utility of HaloTag-based degradation of an oncogene by HyT13 both in cell culture and in mice. The small GTPase H-Ras is one of the most commonly mutated genes in cancer, with up to […] of cancers harboring activating mutations in this gene^35. Activating mutations, such as the H-RasG12V allele, lead to decreased dependence on extracellular mitogenic signals. […] When H-RasG12V expressing cells are grown in culture under low serum conditions they lose cell-to-cell contact inhibition and form distinct foci instead of growing as a cellular monolayer. Furthermore, these transformed cells are capable of tumor formation when injected into immuno-compromised nude mice^36,37. We investigated whether (1) HaloTag-H-RasG12V driven focus formation can be suppressed in NIH-3T3 cells and (2) HaloTag-H-RasG12V driven tumor burden in mice can be reduced by administration of HyT13. […]

[3] = target: T2, HA-HaloTag-H-RasG12V (Rhodococcus rhodochrous, UniProt P0A3G2, C176G/H272F/K175M/Y273L); experiment: Immunoblotting of HA-HaloTag-H-RasG12V in NIH-3T3 cells; format: cell-based; conditions: 1 μM, 24 hours
T2 construct: The HaloTag protein was obtained from pHT2 vector (Promega); H-Ras carrying G12V (fusion partner, same polypeptide); expressed in transfected cells; host or cells: NIH-3T3, retroviral infection (pEYK3.1)
Method: (a) NIH-3T3 cells were retrovirally infected with a construct expressing either HA-HaloTag-HRas(G12V) or HA-HaloTag(D106A)-HRas(G12V). The cells were then treated with vehicle or 1 μM HyT13 for 24 hours. The lysates were prepared for immunoblotting and the blots were probed with anti-HA and anti-β-actin antibodies. (b) One hundred thousand NIH-3T3 cells infected with HA-HaloTag-HRas(G12V) or HA-HaloTag(D106A)-HRas(G12V) were plated in 10% FBS containing medium onto 10-cm plates. The next day, the medium was replaced with 1% FBS containing medium, along with vehicle or 1 μM HyT13. The media was refreshed every 2 days, and the plates were pictured on day 6. Bar, 5 mm. (c) Quantification of foci as described in (b). The number of foci/cm^2 was counted from three separate plates, with error bars representing SEM. […] Tumor size was measured daily, and the tumor volume was calculated. […]
The indicated cells were washed twice with cold PBS and the cells were lysed in lysis buffer (1×PBS, 1% NP-40, 1 mM EDTA, 40 mM HEPES) with protease inhibitors. […] The total protein concentration was determined by Bradford assay and 50 μg of protein was loaded onto an 8% Bis-Tris gel. […] The blots were processed by standard procedures with indicated antibodies, and the band intensities were quantified by ImageJ. […]

O=C(CC12CC3CC(CC(C3)C1)C2)NCCOCCOCCCCCCCl [HyT13, 2-((3r,5r,7r)-Adamantan-1-yl)-N-(2-(2-((6-chlorohexyl)oxy)ethoxy)ethyl)acetamide]
degradation of fusion protein in zebrafish embryos [1]: very efficiently degraded | focus formation [2]: had formed many foci | degradation of HA-HaloTag-H-RasG12V [3]: readily degraded

From patent publication US10145848B2, “Small-molecule hydrophobic tagging of fusion proteins and induced degradation of same” (YALE UNIVERSITY, priority 2010, dated 2018)
